The values that follow come from ChEMBL document CHEMBL6092180 (Eur J Med Chem, 2024).

Common to all, as to type: functional
In one assay the test system is Candida parapsilosis. The assay is described as follows: Antifungal activity against Candida parapsilosis GIM 2.190 assessed as inhibition of fungal growth by CLSI M27-A3 guidelines based method. Particulars: Lodderomyces parapsilosis.
A further assay relates to Candida tropicalis. The assay is described as follows: Antifungal activity against Candida tropicalis GIM 2.183 assessed as inhibition of fungal growth by CLSI M27-A3 guidelines based method.
The next assay deals with Nakaseomyces glabratus. The experiment in a line: Antifungal activity against Candida glabrata assessed as inhibition of fungal growth by CLSI M27-A3 guidelines based method.
The subject of a further assay is Pichia kudriavzevii. The experiment in a line: Antifungal activity against Candida krusei GIM 2.1 assessed as inhibition of fungal growth by CLSI M27-A3 guidelines based method.
The test system of assay [1] is Candida albicans. The experiment in a line: Antifungal activity against Candida albicans SC5314 assessed as inhibition of fungal growth by CLSI M27-A3 guidelines based method.
A further assay concerns Cryptococcus neoformans. The experiment in a line: Antifungal activity against Cryptococcus neoformans CGMCC 2.3161 assessed as inhibition of fungal growth by CLSI M27-A3 guidelines based method.
The test system of assay [2] is Candida albicans. The assay is described as follows: Antifungal activity against Candida albicans GIM 2.194 assessed as inhibition of fungal growth by CLSI M27-A3 guidelines based method.

The structures appear in SMILES notation. Converted amounts (≈) assume the structure as drawn.

Regarding `CN(Cc1ccc(C#Cc2ccc(I)cc2)cc1)CC(O)(Cn1cncn1)c1ccc(F)cc1F` (stereo not drawn), the MIC80 (commonly the lowest concentration that inhibits either 80% of growth or 80% of the strains tested, depending on the study) with Candida parapsilosis turned out to be 6 ng/mL (≈ 0.0103 µM); in the assay on Candida tropicalis, 0.013 µg/mL (≈ 0.0222 µM); in the assay on Nakaseomyces glabratus, 0.01 µg/mL (≈ 0.0171 µM); in the assay with Pichia kudriavzevii, 0.03 µg/mL (≈ 0.0513 µM); with Candida albicans [1], 0.006 µg/mL (≈ 0.0103 µM); with Cryptococcus neoformans, 0.013 µg/mL (≈ 0.0222 µM). Also, the MIC80 in the assay with Candida albicans [2] was 6 ng/mL (≈ 0.0103 µM).
For the compound `C[C@@H](N(C)Cc1ccc(C#Cc2ccc(OC(F)(F)F)cc2)cc1)[C@](O)(Cn1cncn1)c1ccc(F)cc1F`, the MIC80 stood at 13 ng/mL (≈ 0.0234 µM) with Candida parapsilosis; 0.013 µg/mL (≈ 0.0234 µM) with Candida tropicalis; 0.03 µg/mL (≈ 0.0539 µM) in the assay with Nakaseomyces glabratus; 0.8 µg/mL (≈ 1.44 µM) with Pichia kudriavzevii; 0.05 µg/mL (≈ 0.0898 µM) with Candida albicans [1]; 0.05 µg/mL (≈ 0.0898 µM) with Cryptococcus neoformans. In the assay on Candida albicans [2], the MIC80 was determined as 50 ng/mL (≈ 0.0898 µM).
Take `CN(Cc1ccc(C#Cc2ccc(F)c(F)c2)cc1)CC(O)(Cn1cncn1)c1ccc(F)cc1F` (stereo not drawn): the MIC80 in the assay with Candida parapsilosis worked out at 6 ng/mL (≈ 0.0121 µM); with Candida tropicalis, 0.006 µg/mL (≈ 0.0121 µM); in the assay with Nakaseomyces glabratus it was 0.03 µg/mL (≈ 0.0607 µM); in the assay on Pichia kudriavzevii, 0.01 µg/mL (≈ 0.0202 µM); in the assay on Candida albicans [1] it was 0.006 µg/mL (≈ 0.0121 µM); in the assay on Cryptococcus neoformans, 0.013 µg/mL (≈ 0.0263 µM). In addition, the MIC80 with Candida albicans [2] is 6 ng/mL (≈ 0.0121 µM).
Regarding `CN(Cc1ccc(C#Cc2cccnc2)cc1)CC(O)(Cn1cncn1)c1ccc(F)cc1F` (stereo not drawn), the MIC80 in the assay with Candida parapsilosis is 50 ng/mL (≈ 0.109 µM); in the assay on Candida tropicalis it was 0.013 µg/mL (≈ 0.0283 µM); with Nakaseomyces glabratus, 0.8 µg/mL (≈ 1.74 µM); with Pichia kudriavzevii, 0.2 µg/mL (≈ 0.435 µM); with Candida albicans [1], 0.013 µg/mL (≈ 0.0283 µM); with Cryptococcus neoformans, 0.05 µg/mL (≈ 0.109 µM). Besides, the MIC80 with Candida albicans [2] is 25 ng/mL (≈ 0.0544 µM).
Turning to `CN(Cc1ccc(C#Cc2cc(F)c(Cl)cc2F)cc1)CC(O)(Cn1cncn1)c1ccc(F)cc1F` (stereo not drawn), the MIC80 was determined as 6 ng/mL (≈ 0.0113 µM) in the assay with Candida parapsilosis; 0.006 µg/mL (≈ 0.0113 µM) in the assay with Candida tropicalis; 0.01 µg/mL (≈ 0.0189 µM) in the assay on Nakaseomyces glabratus; 0.01 µg/mL (≈ 0.0189 µM) with Pichia kudriavzevii; 0.006 µg/mL (≈ 0.0113 µM) with Candida albicans [1]; 0.025 µg/mL (≈ 0.0473 µM) in the assay with Cryptococcus neoformans. Further, in the assay on Candida albicans [2], the MIC80 came to 6 ng/mL (≈ 0.0113 µM).
As to `CN(Cc1ccc(C#Cc2cccc(Br)c2)cc1)CC(O)(Cn1cncn1)c1ccc(F)cc1F` (stereo not drawn), the MIC80 with Candida parapsilosis stood at 6 ng/mL (≈ 0.0112 µM); in the assay on Candida tropicalis it was 0.013 µg/mL (≈ 0.0242 µM); with Nakaseomyces glabratus, 0.8 µg/mL (≈ 1.49 µM); in the assay on Pichia kudriavzevii it was 0.2 µg/mL (≈ 0.372 µM); with Candida albicans [1] it was 0.025 µg/mL (≈ 0.0465 µM); with Cryptococcus neoformans, 0.013 µg/mL (≈ 0.0242 µM). Further, the MIC80 in the assay on Candida albicans [2] was determined as 6 ng/mL (≈ 0.0112 µM).
For `CN(Cc1ccc(C#Cc2ccccc2F)cc1)CC(O)(Cn1cncn1)c1ccc(F)cc1F` (stereo not drawn), the MIC80 in the assay on Candida parapsilosis was 6 ng/mL (≈ 0.0126 µM); with Candida tropicalis it was 0.006 µg/mL (≈ 0.0126 µM); in the assay on Nakaseomyces glabratus, 0.05 µg/mL (≈ 0.105 µM); in the assay with Pichia kudriavzevii, 0.01 µg/mL (≈ 0.021 µM); in the assay on Candida albicans [1] it was 0.006 µg/mL (≈ 0.0126 µM); in the assay with Cryptococcus neoformans, 0.006 µg/mL (≈ 0.0126 µM). Besides, the MIC80 in the assay with Candida albicans [2] came out at 13 ng/mL (≈ 0.0273 µM).
As to `CN(Cc1ccc(C#Cc2ccc(N)cc2)cc1)CC(O)(Cn1cncn1)c1ccc(F)cc1F` (stereo not drawn), the MIC80 in the assay on Candida parapsilosis was 50 ng/mL (≈ 0.106 µM); in the assay on Candida tropicalis, 0.2 µg/mL (≈ 0.422 µM); with Nakaseomyces glabratus, 3.2 µg/mL (≈ 6.76 µM); in the assay with Pichia kudriavzevii, 0.8 µg/mL (≈ 1.69 µM); with Candida albicans [1] it was 0.2 µg/mL (≈ 0.422 µM); in the assay with Cryptococcus neoformans it was 0.4 µg/mL (≈ 0.845 µM). The MIC80 with Candida albicans [2] was found to be 50 ng/mL (≈ 0.106 µM).
For `CN(Cc1ccc(C#Cc2ccc(C#N)cc2)cc1)CC(O)(Cn1cncn1)c1ccc(F)cc1F` (stereo not drawn), the MIC80 came to 6 ng/mL (≈ 0.0124 µM) with Candida parapsilosis; 0.013 µg/mL (≈ 0.0269 µM) in the assay with Candida tropicalis; 0.1 µg/mL (≈ 0.207 µM) with Nakaseomyces glabratus; 0.1 µg/mL (≈ 0.207 µM) in the assay with Pichia kudriavzevii; 0.013 µg/mL (≈ 0.0269 µM) in the assay with Candida albicans [1]; 0.05 µg/mL (≈ 0.103 µM) in the assay with Cryptococcus neoformans. In the assay with Candida albicans [2], the MIC80 turned out to be 6 ng/mL (≈ 0.0124 µM).
With `COc1ccc(C#Cc2ccc(CN(C)CC(O)(Cn3cncn3)c3ccc(F)cc3F)cc2)cc1` (stereo not drawn), the MIC80 with Candida parapsilosis stood at 13 ng/mL (≈ 0.0266 µM); in the assay on Candida tropicalis it was 0.013 µg/mL (≈ 0.0266 µM); with Nakaseomyces glabratus, 0.8 µg/mL (≈ 1.64 µM); in the assay on Pichia kudriavzevii, 0.2 µg/mL (≈ 0.409 µM); with Candida albicans [1] it was 0.013 µg/mL (≈ 0.0266 µM); in the assay with Cryptococcus neoformans, 0.05 µg/mL (≈ 0.102 µM). Also, the MIC80 with Candida albicans [2] was found to be 13 ng/mL (≈ 0.0266 µM).
As for `C[C@@H](N(C)Cc1ccc(C#Cc2ccc(C(F)(F)F)cc2)cc1)[C@](O)(Cn1cncn1)c1ccc(F)cc1F`, the MIC80 is 13 ng/mL (≈ 0.0241 µM) in the assay with Candida parapsilosis; 0.013 µg/mL (≈ 0.0241 µM) in the assay with Candida tropicalis; 0.05 µg/mL (≈ 0.0925 µM) in the assay on Nakaseomyces glabratus; 0.1 µg/mL (≈ 0.185 µM) in the assay on Pichia kudriavzevii; 0.025 µg/mL (≈ 0.0463 µM) with Candida albicans [1]; 0.05 µg/mL (≈ 0.0925 µM) in the assay on Cryptococcus neoformans. Also, the MIC80 with Candida albicans [2] came to 50 ng/mL (≈ 0.0925 µM).
Take `CN(Cc1ccc(C#Cc2ccccc2Cl)cc1)CC(O)(Cn1cncn1)c1ccc(F)cc1F` (stereo not drawn): the MIC80 in the assay on Candida parapsilosis stood at 6 ng/mL (≈ 0.0122 µM); with Candida tropicalis it was 0.013 µg/mL (≈ 0.0264 µM); with Nakaseomyces glabratus, 0.8 µg/mL (≈ 1.62 µM); in the assay on Pichia kudriavzevii, 0.03 µg/mL (≈ 0.0609 µM); in the assay with Candida albicans [1], 0.013 µg/mL (≈ 0.0264 µM); with Cryptococcus neoformans, 0.013 µg/mL (≈ 0.0264 µM). Besides, the MIC80 in the assay with Candida albicans [2] is 6 ng/mL (≈ 0.0122 µM).
In the case of `CCOC(=O)c1ccc(C#Cc2ccc(CN(C)CC(O)(Cn3cncn3)c3ccc(F)cc3F)cc2)cc1` (stereo not drawn), the MIC80 with Candida parapsilosis amounted to 6 ng/mL (≈ 0.0113 µM); in the assay with Candida tropicalis, 0.013 µg/mL (≈ 0.0245 µM); in the assay on Nakaseomyces glabratus, 0.1 µg/mL (≈ 0.188 µM); in the assay with Pichia kudriavzevii it was 0.2 µg/mL (≈ 0.377 µM); with Candida albicans [1], 0.013 µg/mL (≈ 0.0245 µM); in the assay on Cryptococcus neoformans, 0.025 µg/mL (≈ 0.0471 µM). Further, the MIC80 in the assay on Candida albicans [2] was found to be 13 ng/mL (≈ 0.0245 µM).
For `CN(Cc1ccc(C#Cc2ccc(Br)cc2F)cc1)CC(O)(Cn1cncn1)c1ccc(F)cc1F` (stereo not drawn), the MIC80 in the assay on Candida parapsilosis was found to be 6 ng/mL (≈ 0.0108 µM); in the assay with Candida tropicalis, 0.006 µg/mL (≈ 0.0108 µM); with Nakaseomyces glabratus, 0.03 µg/mL (≈ 0.054 µM); in the assay with Pichia kudriavzevii, 0.03 µg/mL (≈ 0.054 µM); in the assay on Candida albicans [1], 0.006 µg/mL (≈ 0.0108 µM); with Cryptococcus neoformans, 0.025 µg/mL (≈ 0.045 µM). Moreover, the MIC80 in the assay with Candida albicans [2] worked out at 6 ng/mL (≈ 0.0108 µM).
